Values joined by “and” are separate entries in the source; they are usually repeats but may differ in a detail not shown here. Identical values can stand only once.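 Exposure lasted 48 hours, with cells grown in 96-well plates and compounds tested at five concentrations. GI50 = concentration required for 50% inhibition of growth. At the TGI there is no net growth.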 Where only a bound is given, the exact number is not on record here.

As a reminder, the GI50 is the concentration that inhibits growth by half. By TGI is commonly meant the concentration giving total growth inhibition. Low readings indicate more potent growth arrest, high ones less potent growth arrest.

Among the test systems are DU-145 prostate; HCC-2998 colon; MDA-MB-231 breast; MDA-MB-435; NCI-H23 lung; SF-268 CNS; SK-OV-3 ovarian; SW-620 colon; SN12C renal; HOP-92 NSCLC.
Holding throughout (assay): DTP human tumour cell line panel, 48 h

Consider `Nc1nc(Nc2ccc3c(c2)CC[C@@H](N2CCCC2)CC3)nn1-c1cc2c(nn1)-c1ccccc1CCC2`, for which the GI50 was 1.35 µM with DU-145 prostate; 1.61 µM in the experiment on HCC-2998 colon; 1.82 µM in the experiment with MDA-MB-231 breast; 1690 nM in the experiment with MDA-MB-435; 1.72 µM in the experiment with NCI-H23 lung; 1.44 µM with SF-268 CNS. Moreover, the results for the GI50 in the experiment on SK-OV-3 ovarian and with SW-620 colon were 1.66 µM and 1.7 µM, respectively. Moreover, the TGI in the experiment on DU-145 prostate turned out to be 3 µM; with HCC-2998 colon it was 3.1 µM; with MDA-MB-231 breast, 3.55 µM; in the experiment with MDA-MB-435, 3.1 µM; in the experiment on NCI-H23 lung, 3.56 µM; in the experiment with SF-268 CNS, 3.26 µM. Besides, the concentration for total growth inhibition (TGI) was 3.34 µM with SK-OV-3 ovarian and 3.44 µM with SW-620 colon.

As for `CCCCCNC(=O)[C@@H]1CCCN2C(=O)CC[C@H](NC(=O)[C@H](Cc3ccc(OP(=O)(O)O)cc3)NC(C)=O)C(=O)N12`, the GI50 in the experiment with DU-145 prostate is more than 25 µM; with HCC-2998 colon, more than 25 µM; in the experiment on MDA-MB-231 breast it was more than 25 µM; in the experiment with MDA-MB-435, more than 25000 nM; in the experiment with NCI-H23 lung, more than 25 µM; in the experiment with SF-268 CNS, more than 25 µM. Besides, the GI50 in the experiment with SK-OV-3 ovarian, with SN12C renal and in the experiment with SW-620 colon was more than 25 µM each time. Further, the TGI in the experiment on DU-145 prostate, in the experiment on HCC-2998 colon, with MDA-MB-231 breast, in the experiment on MDA-MB-435, with NCI-H23 lung and in the experiment on SF-268 CNS was more than 25 µM each time. Further, the TGI in the experiment with SK-OV-3 ovarian, in the experiment on SN12C renal and in the experiment with SW-620 colon was more than 25 µM each time.

For the molecule `O=C(NC1CC1)c1ccc(-c2nc3ccc4[nH]ncc4c3c3c2CCCC3)cc1`, the GI50 in the experiment with DU-145 prostate is 2.43 µM; in the experiment on HCC-2998 colon it was 3.27 µM; in the experiment with HOP-92 NSCLC, 1.45 µM; in the experiment on MDA-MB-231 breast, 2.06 µM; in the experiment on MDA-MB-435, 1380 nM; in the experiment on NCI-H23 lung, 3.41 µM. Further, the figures for the GI50 in the experiment with SF-268 CNS, in the experiment on SN12C renal and with SW-620 colon were 1.87 µM, 2.24 µM and 1.41 µM, respectively. For the same molecule, the total growth inhibition concentration (TGI) was 20.2 µM with DU-145 prostate; 10.1 µM with HCC-2998 colon; 25.2 µM in the experiment on HOP-92 NSCLC; 31.8 µM in the experiment on MDA-MB-231 breast; 5.02 µM with MDA-MB-435; 31.3 µM in the experiment with NCI-H23 lung. In addition, the TGI is 14 µM in the experiment with SF-268 CNS, 20.7 µM in the experiment on SN12C renal and 10.3 µM with SW-620 colon.

`CC(=O)Nc1nc(SCc2ccccc2)c2ncn(C(C)=O)c2n1`: the GI50 with DU-145 prostate is more than 100 µM; in the experiment on HCC-2998 colon it was more than 100 µM; with MDA-MB-231 breast, 77.3 µM; in the experiment with MDA-MB-435, more than 100000 nM; with NCI-H23 lung, more than 100 µM; in the experiment on SF-268 CNS, more than 100 µM. Further, the GI50 with SK-OV-3 ovarian is 55.9 µM; in the experiment with SN12C renal, more than 100 µM; in the experiment with SW-620 colon, more than 100 µM. For the same molecule, the concentration for total growth inhibition (TGI) in the experiment on DU-145 prostate, with HCC-2998 colon, in the experiment on MDA-MB-231 breast, in the experiment with MDA-MB-435, in the experiment with NCI-H23 lung and with SF-268 CNS was more than 100 µM in each case. In addition, the TGI with SK-OV-3 ovarian, in the experiment with SN12C renal and with SW-620 colon was more than 100 µM each time.

With `COc1ccc(/C=C\c2cc(OC)c(OC)c(OC)c2)cc1OC(=O)C(N)CCC(=O)O` (stereo not given), the GI50 was 0.000364 µM and 0.000444 µM and < 0.0001 µM in the experiment on DU-145 prostate; 0.00298 µM and 0.000791 µM in the experiment with HOP-92 NSCLC; 0.00211 µM and 0.00795 µM in the experiment on MDA-MB-231 breast; 0.169 nM and 0.049 nM with MDA-MB-435; 0.000594 µM with SW-620 colon. Besides, the total growth inhibition concentration (TGI) in the experiment with HOP-92 NSCLC was 0.0086 µM; with MDA-MB-435, 0.000799 µM and 0.000118 µM; in the experiment with NCI-H23 lung, 0.000785 µM and 0.0056 µM; in the experiment on SK-OV-3 ovarian it was more than 100 µM; with SN12C renal, more than 100 µM; in the experiment on SW-620 colon, more than 100 µM.

Turning to `c1cc2c(cc1C(N1CCNCC1)N1CCNCC1)OCO2`, the TGI in the experiment on DU-145 prostate, in the experiment on HOP-92 NSCLC, in the experiment with MDA-MB-231 breast, in the experiment with MDA-MB-435, in the experiment with NCI-H23 lung and with SF-268 CNS was more than 100 µM each time. The TGI in the experiment on SK-OV-3 ovarian, in the experiment on SN12C renal and in the experiment on SW-620 colon was more than 100 µM each time.

In the case of `CC1(C)OC[C@@H]([C@@]2(CO[Si](C)(C)C(C)(C)C)CC=CC(=O)O2)O1`, the GI50 with DU-145 prostate is 18.7 µM; in the experiment on HCC-2998 colon, 18.6 µM; in the experiment with HOP-92 NSCLC, 14.1 µM; in the experiment on MDA-MB-231 breast it was 27.2 µM; in the experiment with MDA-MB-435 it was 22800 nM; with SF-268 CNS, 29 µM. Besides, the results for the GI50 in the experiment on SK-OV-3 ovarian, in the experiment with SN12C renal and in the experiment with SW-620 colon were 30.4 µM, 19.5 µM and 28.3 µM, respectively. The concentration for total growth inhibition (TGI) with DU-145 prostate turned out to be 40.9 µM; in the experiment with HCC-2998 colon, 34.1 µM; in the experiment on HOP-92 NSCLC, 43.4 µM; in the experiment with MDA-MB-231 breast, 59.9 µM; in the experiment on MDA-MB-435, 57.4 µM; in the experiment on SF-268 CNS, 89.2 µM. The TGI was 88.5 µM in the experiment with SK-OV-3 ovarian, 47.6 µM in the experiment with SN12C renal and 69.8 µM in the experiment on SW-620 colon.

In the case of `CN(C)CCCN=C(N)N`, the TGI with DU-145 prostate, in the experiment with HOP-92 NSCLC, with MDA-MB-231 breast, with MDA-MB-435, in the experiment with NCI-H23 lung and in the experiment with SF-268 CNS was more than 100 µM in each case. Moreover, the TGI in the experiment with SK-OV-3 ovarian, with SN12C renal and in the experiment with SW-620 colon was more than 100 µM each time.

As for `N#CC1=C(N)NC(=S)NC12Nc1ccccc1O2` (stereo not given), the GI50 with DU-145 prostate was 55.1 µM; with HOP-92 NSCLC, more than 100 µM; in the experiment with MDA-MB-231 breast it was 19.3 µM; with MDA-MB-435, 16800 nM; in the experiment with NCI-H23 lung, 20.4 µM; in the experiment with SF-268 CNS, 51.2 µM. For the same molecule, the GI50 in the experiment on SK-OV-3 ovarian is 37.9 µM; with SN12C renal, 25.2 µM; with SW-620 colon, 47.6 µM. In addition, the TGI in the experiment with DU-145 prostate was more than 100 µM; in the experiment with HOP-92 NSCLC it was more than 100 µM; in the experiment on MDA-MB-231 breast, 76.7 µM; with MDA-MB-435, more than 100 µM; in the experiment with NCI-H23 lung it was 69.7 µM; with SF-268 CNS, more than 100 µM. The concentration for total growth inhibition (TGI) in the experiment on SK-OV-3 ovarian was more than 100 µM; in the experiment with SN12C renal it was 90 µM; with SW-620 colon, more than 100 µM.
